How the values were obtained:
[1] = Inhibition of 2-oxoglutarate-dependent human JMJD2E in presence of excess 2-oxoglutarate and 10 uM Fe2 by FDH coupled assay
[2] = Inhibition of 2-oxoglutarate-dependent human JMJD2E in presence of excess H3K9me3 peptide and 10 uM Fe2 by FDH coupled assay
[3] = Inhibition of 2-oxoglutarate-dependent human JMJD2E preincubated for 30 mins by FDH coupled assay
[4] = Inhibition of 2-oxoglutarate-dependent human JMJD2E in presence of 50 uM Fe by FDH coupled assay
[5] = Inhibition of human collagene prolyl-4-hydroxylase
[6] = Inhibition of human collagene prolyl-3-hydroxylase
Prolyl hydroxylase EGLN2 = Prolyl hydroxylase EGLN2 (Homo sapiens, UniProt Q96KS0); assay: Inhibition of human recombinant HIF PHD1
Sequence of Prolyl hydroxylase EGLN2 (Q96KS0 whole entry): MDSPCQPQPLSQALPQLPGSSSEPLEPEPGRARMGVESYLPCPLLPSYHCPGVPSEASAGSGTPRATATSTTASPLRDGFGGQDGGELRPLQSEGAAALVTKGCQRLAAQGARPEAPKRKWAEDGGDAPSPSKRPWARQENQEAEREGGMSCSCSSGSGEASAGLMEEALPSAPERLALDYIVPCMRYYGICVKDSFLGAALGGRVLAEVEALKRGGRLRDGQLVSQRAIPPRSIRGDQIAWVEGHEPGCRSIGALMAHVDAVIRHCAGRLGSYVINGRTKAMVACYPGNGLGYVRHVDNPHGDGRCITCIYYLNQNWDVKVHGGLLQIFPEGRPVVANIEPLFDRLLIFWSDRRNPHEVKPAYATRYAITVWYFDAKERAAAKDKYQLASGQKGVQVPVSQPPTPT

Prolyl hydroxylase EGLN3 = Prolyl hydroxylase EGLN3 (Homo sapiens, UniProt Q9H6Z9); assay: Inhibition of human recombinant HIF PHD3
Sequence of Prolyl hydroxylase EGLN3 (Q9H6Z9 whole entry): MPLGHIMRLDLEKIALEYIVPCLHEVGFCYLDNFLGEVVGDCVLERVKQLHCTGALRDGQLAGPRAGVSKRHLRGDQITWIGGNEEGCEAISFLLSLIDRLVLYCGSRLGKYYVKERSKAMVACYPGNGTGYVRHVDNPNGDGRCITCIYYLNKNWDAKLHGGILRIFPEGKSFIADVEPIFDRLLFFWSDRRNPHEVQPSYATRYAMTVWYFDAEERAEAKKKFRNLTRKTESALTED

Egl nine homolog 1 [7] = target: T1, Egl nine homolog 1 (Homo sapiens, UniProt Q9GZT9); assay: Inhibition of 2-oxoglutarate-dependent human recombinant HIF PHD2 preincubated for 1 hr
T1 sequence (Q9GZT9 whole entry): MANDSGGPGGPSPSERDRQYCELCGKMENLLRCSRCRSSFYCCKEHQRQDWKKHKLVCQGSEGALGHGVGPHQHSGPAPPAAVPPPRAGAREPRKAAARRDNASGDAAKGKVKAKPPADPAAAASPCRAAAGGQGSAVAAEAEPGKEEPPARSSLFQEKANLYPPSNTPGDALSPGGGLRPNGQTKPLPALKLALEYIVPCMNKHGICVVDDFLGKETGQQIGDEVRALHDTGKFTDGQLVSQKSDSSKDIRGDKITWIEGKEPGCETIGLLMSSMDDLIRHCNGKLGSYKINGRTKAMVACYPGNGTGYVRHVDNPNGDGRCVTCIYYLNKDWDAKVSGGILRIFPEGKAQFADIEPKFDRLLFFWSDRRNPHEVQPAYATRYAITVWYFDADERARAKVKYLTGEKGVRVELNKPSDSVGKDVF

[8] = target: Hypoxia-inducible factor 1-alpha inhibitor (Homo sapiens, UniProt Q9NWT6); assay: Inhibition of human FIH
Sequence of Hypoxia-inducible factor 1-alpha inhibitor (Q9NWT6 whole entry): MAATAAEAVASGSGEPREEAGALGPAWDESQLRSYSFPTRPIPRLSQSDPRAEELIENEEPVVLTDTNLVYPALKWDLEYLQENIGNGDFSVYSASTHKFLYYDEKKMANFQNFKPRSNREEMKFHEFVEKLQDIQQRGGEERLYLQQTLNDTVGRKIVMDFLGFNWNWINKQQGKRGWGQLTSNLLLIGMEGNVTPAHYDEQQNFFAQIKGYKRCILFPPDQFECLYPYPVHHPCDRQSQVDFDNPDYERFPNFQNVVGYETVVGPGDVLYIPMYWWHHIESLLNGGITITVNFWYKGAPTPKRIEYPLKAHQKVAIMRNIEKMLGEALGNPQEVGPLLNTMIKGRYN

Egl nine homolog 1 [9] = target: T1, Egl nine homolog 1; assay: Inhibition of human recombinant PHD2

SMILES | IC50 [1] [µM] | IC50 [2] [µM] | also measured
O=C(NO)c1cccc(O)c1 | 300 | 28 | IC50 [3]: 4.8 µM; IC50 [4]: 19 µM
O=C(O)c1ccncc1C(=O)O | > 10000 | > 10000 | –
O=C(O)c1ccnc(C(=O)O)c1 | 4.7 | – | IC50 [4]: 1.8 µM; Ki [5]: 2 µM; Ki [6]: 9 µM; Ki (Prolyl hydroxylase EGLN2): 7 µM; Ki (Prolyl hydroxylase EGLN3): 7 µM
O=C(O)c1cncc(C(=O)O)c1 | > 10000 | > 10000 | –
O=C(O)C(=O)N[C@H](CCc1ccccc1)C(=O)O | 270 | 100 | IC50 [3]: 39 µM
O=C(O)C(=O)N[C@H](Cc1ccccc1)C(=O)O | 590 | – | –
O=C(O)c1cc(C(=O)O)ncn1 | 73 | 27 | –
O=C(NO)c1cc(O)ccc1Oc1ccccc1 | 340 | 360 | –
COc1ccc(O)cc1C(=O)NO | 300 | 230 | IC50 [4]: 160 µM
CCCC(=O)O [BUTYRIC ACID] | > 10000 | > 10000 | –
O=C(O)c1cccc(C(=O)O)n1 [DIPICOLINIC ACID] | 250 | 120 | IC50 [4]: 120 µM
O=C(O)/C=C/C(=O)O [FUMARIC ACID] | > 10000 | 1600 | IC50 [3]: 2300 µM; IC50 (Egl nine homolog 1 [7]): 3 µM
O=C(O)CNC(=O)C(=O)O [N-OXALYLGLYCINE] | – | – | Ki [8]: 1200 µM
O=C(O)c1ccc(C(=O)O)nc1 [PYRIDINE-2,5-DICARBOXYLIC ACID] | 1900 | 180 | Ki (Egl nine homolog 1 [9]): > 300 µM; Ki [5]: 0.8 µM; Ki [6]: > 1000 µM; Ki (Prolyl hydroxylase EGLN2): > 300 µM; Ki (Prolyl hydroxylase EGLN3): > 300 µM
O=C(O)c1cccnc1C(=O)O [QUINOLINIC ACID] | > 10000 | > 5000 | –
O=C(O)CCC(=O)O [SUCCINIC ACID] | > 10000 | 710 | IC50 [3]: 320 µM
CC(/C=C/C(=O)NO)=C\[C@@H](C)C(=O)c1ccc(N(C)C)cc1 [TRICHOSTATIN] | – | – | IC50 [3]: 28 µM
